In patent US9499570B2, “Boron containing small molecules” (priority 2010, dated 2016):
“Also recorded” adds a separate entry of the source.

How the values were obtained:
[1] = test system: Schistosoma mansoni schistosomula; test: Schistosoma mansoni schistosomula phenotype screen in vitro; settings: for Schistosomula (juvenile infective form) worm screen phenotype 2 d / Schistosomula (juvenile infective form) worm screen phenotype 3 d / Schistosomula (juvenile infective form) worm screen phenotype 4 d / Schistosomula (juvenile infective form) worm screen phenotype 24 h: Second Set, 5 uM; for Schistosomula phenotype day 4 / Schistosomula phenotype day 6 / Schistosomula phenotype day 2: First Set; for Phenotypes caused by positive control compounds: schistosomula
Text: (§1) Puerto Rican isolates of S. mansoni using Biomphalaria glabrata snails and golden hamsters as intermediate and definitive hosts, respectively, were maintained and handled in the University of California-San Francisco Sandler Center for Tropical Medicine. Patent B. glabrata snails (6-8 weeks after exposure to 5-10 infectious miracidia) were induced to shed infective larvae (cercariae) under light stimulus into the surrounding water. Cercariae were washed in rounds of ice-cold water and concentrated through and over sieves of varying pore sizes. They were then mechanically sheared (separation of heads from tails) as described in Colley D G, et al. Exp Parasitol 1974, 35:44-51, in ice-cold Incomplete Medium 169 (as described in Basch P F. J Parasitol 1981, 67:179-185, minus FBS and antibiotics) by passing 15 times through a double headed 22-gauge syringe needle connected to two 10 mL syringes. The resulting cercarial heads (schistosomula) were separated from their tails by swirling in a petri dish. Concentrated schistosomula were added to a sterile 1.5 mL centrifuge tube and allowed to settle over ice. Schistosomula were transferred to a sterile environment and washed 4 times in Incomplete Medium 169 prior to plating.
(§2) Two sets of screening were performed. In the first set, compounds were screened against schistosomula and observations were made at 24 hours, 2 days, 3 days, 4 days, and 6 days. In the second set, compounds were screened against schistosomula with observations at 24 hours, 2 days, 3 days, and 4 days and adult worms at 7 hours, 24 hours, 4 days, and 6 days.
Plates contain 200 schistosomula/well in […] complete Basch medium and were maintained at 37° C. in a 5% CO2 atmosphere. All compounds were tested in duplicate with at least two experimental replicates. Compounds and control compounds were added to the plates using the Biomek FXp using 96-well disposable tips. Final concentration of DMSO in each well was 0.5%.
(§3) A semi-quantitative and controlled nomenclature for phenotypes that can arise as a result of compound insult to both schistosomula and adults was utilized (Abdulla M H, et al., PLoS Negl Trop Dis 2009, 3:e478). Phenotypes were recorded by visual inspection and on a flexible time basis but at least at 24 h and 4 day time-points in the case of large scale screening. […] To help eliminate bias, two screen analysts scored phenotypes ‘blind’ both to knowledge of the contents of each screening plate and the phenotypes scored by his/her colleague. Upon completing their individual assessments, each analyst's ‘hit sheet’ was then compared to derive a ‘consensus hit sheet’. Discrepancies in analysts' hit sheets were re-evaluated under the microscope to eventually make a consensus hit call.
(§4) Hyper-coiled and coiled represent a verbal description of the visual phenotype as compared to the DMSO control. The + and ++ and +++ means more of the phenotype which preceded it. The − means less of the phenotype which preceded it. Results

[2] = test system: Schistosoma mansoni adult worms; test: Schistosoma mansoni adult worm phenotype screen in vitro; settings: for Adult worm screen phenotype 7 h / Adult worm screen phenotype 24 h / Adult worm screen phenotype 4 d / Adult worm screen phenotype 6 d*: Second Set, 5 uM; for Phenotypes caused by positive control compounds: adult worms
Text: as §1, §2
Given the delicacy and size (0.5-1.5 cm in length) of this stage all operations were performed manually by the Sandler Center. 24-well plates were set up with compound (final DMSO concentration=0.5%) containing approximately 5 pairs of worms (S. mansoni has separate sexes) in 2 mL complete Basch medium per well. Plates were maintained at 37° C. in a 5% CO2 atmosphere. All compounds were tested in duplicate with at least two experimental replicates.
as §3, §4

[3] = test system: Brugia malayi; test: Brugia malayi in vitro assay, adult female worms; settings: 50 uM
Description: Adult female worms are shipped from TRS Labs Inc. (Nonglak Supakorndej, Lab Director, 295 Research Dr., Athens, Ga. 30605; 706-549-0764) via Fed Ex. Individual worms are shipped in 2 mls vials with RPMI on Mondays and arrive at the […] Center lab on Tuesday mornings. Individual worms are poured into each well (24-well tissue culture plates) to avoid handling worms since they are very delicate and easily broken. Transport media is removed and replaced with 0.5 mls of RPMI-1640 (25 mM HEPES, 2 g/L NaHCO3, Antibiotic/Antimycotic, 5% HI FBS). Worms are maintained in a 37° C. 5% CO2 incubator. Compounds are added directly to each duplicate well (5 ul of 5 mM for a final concentration of 50 uM). DMSO (5 ul) is used as a negative control and Ivermectin (Sigma) is used as a positive control at 100 uM/well and 20 uM/well. Adult filarial nematodes can shed/give birth to microfilarial worms (mf) during the course of the assay. Wells were reviewed for the presence of mf, and the viability of mf, by visual observation of the well on the last day of observation (Day 7). Plates are examined once a day for 4-7 days. […] If changes are observed, worms are more closely examined under a dissecting microscope.

| SMILES | Schistosomula (juvenile infective form) worm screen phenotype 2 d [1] | Schistosomula (juvenile infective form) worm screen phenotype 3 d [1] | Schistosomula (juvenile infective form) worm screen phenotype 4 d [1] | Adult worm screen phenotype 7 h [2] | Adult worm screen phenotype 24 h [2] | Adult worm screen phenotype 4 d [2] | Schistosomula phenotype day 4 [1] | Schistosomula (juvenile infective form) worm screen phenotype 24 h [1] | Schistosomula phenotype day 6 [1] | other results |
| --- | --- | --- | --- | --- | --- | --- | --- | --- | --- | --- |
| N#Cc1ccc(Oc2ccc3c(c2)COB3O)nc1OC1CCCC1 [2-Cyclopentyloxy-6-(1-hydroxy-1,3-dihydro-benzo[c][1,2]oxaborol-5-yloxy)-nicotinonitrile] | O++, R−, and some and deg-M | O++, R−, and some and deg-M | O++, R−,; also recorded: some deg-M | O+ | O− | v, slow, sex; also recorded: sep, on sides |  |  |  | Adult worm screen phenotype 6 d* [2]: Dark, S,; also recorded: Partial D (Partial D=partial killing of worm population) |
| CC(C)OCCOc1nc(Oc2ccc3c(c2)COB3O)ccc1C#N [6-(1-hydroxy-1,3-dihydrobenzo[c][1,2]oxaborol-5-yloxy)-2-(4-isopropoxyethoxy)nicotinonitrile] |  |  |  |  |  |  |  |  |  | Presence and viability of microfilarial worms (mf) Day 7 ([3]; trial one): mf and alive; Worm activity / phenotype Day 1 ([3]; trial one): hyper-; also recorded: coiled; Worm activity / phenotype Day 3 ([3]; trial one): hyper-; also recorded: coiled; Worm activity / phenotype Day 7 ([3]; trial one): 0, and coiled; Presence and viability of microfilarial worms (mf) Day 7 ([3]; trial two): no mf and obs; Worm activity / phenotype Day 1 ([3]; trial two): hyper-; also recorded: coiled; Worm activity / phenotype Day 2 ([3]; trial two): hyper-; also recorded: coiled; Worm activity / phenotype Day 3 ([3]; trial two): 4 (4=highly active (controls)); Worm activity / phenotype Day 7 ([3]; trial two): 0, and coiled |
| N#Cc1ccc(Oc2ccc3c(c2)COB3O)nc1 [6-(1-hydroxy-1,3-dihydrobenzo[c][1,2]oxaborol-5-yloxy)nicotinonitrile] | R−, O−, and some and deg-M | O, some; also recorded: deg-M | O, some deg-M | O− |  |  | O−, and R− | R−, O− |  |  |
| COc1nc(Oc2cc3c(cc2F)B(O)OC3)ccc1C#N [6-(6-Fluoro-1-hydroxy-1,3-dihydrobenzo[c][1,2]oxaborol-5-yloxy)-2-methoxynicotinonitrile] | O+++, and R−, and some and deg-M | O+++, and some and deg-M | O+++, some; also recorded: deg-M | O++ | O++ sex sep | O+, sex sep; also recorded: males dark |  | R, O++,; also recorded: some deg-m | R O and some and partial D | Adult worm screen phenotype 6 d* [2]: Dark, Partial D |
| CC(C)OCCOc1nc(Oc2ccc3c(c2)COB3O)ccc1C#N [D140, 6-(1-Hydroxy-1,3-dihydrobenzo[c][1,2]oxaborol-5-yloxy)-2-(2-isopropoxyethoxy)nicotinonitrile, reference compound] | O+++, and R−, and some and deg-M | O+++, R, and some and deg-M | O+++, R,; also recorded: some deg-M | O++ | O++ sex sep | O, sex sep, |  | R, O++,; also recorded: some deg-m |  |  |
| CC(=O)CCCOc1nc(Oc2ccc3c(c2)COB3O)ccc1C#N [D141, 6-(1-hydroxy-1,3-dihydrobenzo[c][1,2]oxaborol-5-yloxy)-2-(4-oxopentyloxy) nicotinonitrile, reference compound] | O+++, and R−, and some and deg-M | O+++, R, and some and deg-M | O+++, R,; also recorded: some deg-M | O++, and Sex sep (Sex sep=worm pairs have separated) and (violent and motion) | O++, Sex; also recorded: sep (violent; also recorded: motion) | O++, sex; also recorded: sep on sides,; also recorded: males dark |  | R, O++,; also recorded: some deg-m |  | Adult worm screen phenotype 6 d* [2]: Dark, S,; also recorded: Partial D (Partial D=partial killing of worm population) |
| CC(C)OC(=O)c1ccc(Oc2ccc3c(c2)COB3O)nc1 [Isopropyl 6-(1-hydroxy-1,3-dihydrobenzo[c][1,2]oxaborol-5-yloxy)nicotinate] |  |  |  |  |  |  | O, R, and some and deg-m |  | O, R,; also recorded: Partial D (Partial D=partial killing of worm population) | Schistosomula phenotype day 2 [1]: O, (O=overactive); also recorded: deg-m |
| CC(=O)NCc1ccc(Oc2ccc3c(c2)COB3O)cc1 [N-[4-(1-Hydroxy-1,3-dihydro-benzo[c][1,2]oxaborol-5-yloxy)-benzy]-acetamide] |  |  |  |  |  |  | D (D=dead) |  |  |  |
| O=C(C1CCCCC1)N1CC(=O)N2CCc3ccccc3C2C1 (stereo not shown) [PZQ, reference compound] |  |  |  |  |  |  |  |  |  | Phenotypes caused by positive control compounds [1]: dose-dependent, rapid and severe phenotypes; Phenotypes caused by positive control compounds [2]: dose-dependent, rapid and severe phenotypes |
| CCCCOC(=O)c1ccc(Oc2ccc3c(c2)COB3O)nc1 [n-Butyl 6-(1-hydroxy-1,3-dihydrobenzo[c][1,2]oxaborol-5-yloxy)nicotinate] |  |  |  |  |  |  | deg-m,; also recorded: (shrunk); also recorded: O, R, |  | deg-m; also recorded: O, R, D, | Schistosomula phenotype day 2 [1]: (strong); also recorded: O, deg-m |
| CCCOC(=O)c1ccc(Oc2ccc3c(c2)COB3O)nc1 [n-Propyl 6-(1-hydroxy-1,3-dihydrobenzo[c][1,2]oxaborol-5-yloxy)nicotinate] |  |  |  |  |  |  |  |  | O, R,; also recorded: Partial D (Partial D=partial killing of worm population) | Schistosomula phenotype day 2 [1]: O+ and (shrunk) |
| O=C(Nc1ccc([N+](=O)[O-])cc1Cl)c1cc(Cl)ccc1O [niclosamide, reference compound] |  |  |  |  |  |  |  |  |  | Phenotypes caused by positive control compounds [1]: dose-dependent, rapid and severe phenotypes; Phenotypes caused by positive control compounds [2]: dose-dependent, rapid and severe phenotypes |
| O=C(Nc1ccc(Oc2ccc(Cl)cc2)c(Cl)c1)c1cc(I)cc(I)c1O [rafoxanide, reference compound] |  |  |  |  |  |  |  |  |  | Phenotypes caused by positive control compounds [1]: dose-dependent, rapid and severe phenotypes; Phenotypes caused by positive control compounds [2]: dose-dependent, rapid and severe phenotypes |
